Test: gradient 5% acetonitrile 3 min, to 50% in 2 min, to 85% in 15 min, held 3 min, 100 µL/min
Conditions: column: Zorbax Extend-C18 2.1 x 50 mm; eluents: water / acetonitrile, 0.1% formic acid
Summary of the method: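 Each retention time is based on an adduct peak selected computationally and verified by manual inspection. Measurements used HPLC–quadrupole time-of-flight mass spectrometry in positive and negative ionization mode on mixtures of ~100 pure standards. Chromatography ran on a Zorbax Extend-C18 column (2.1 × 50 mm, 1.8 μm) at 100 μL/min with water and acetonitrile, each containing 0.1% formic acid, and dead and dwell volumes of 40 μL and 900 μL.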

Compound | RP-LC retention time
Cc1nn(-c2ccccc2)c(C)c1CCC(=O)NCCN(C)C | 590 s
Cc1nc(C(=O)NCc2ccccc2C(F)(F)F)c(C)o1 | 917 s
CCn1ccc(C(=O)N2CCC(c3noc(-c4cnccn4)n3)C2)n1 (centres undefined) | 634 s
CN(C)CCn1c2c(c(SCC(=O)Nc3ccc(F)c(F)c3)nc1=O)CCC2 | 638 s
COc1ccc(CN2C[C@@H](CO)[C@H](c3ccncc3)C2)cc1OC | 592 s
CC1CCC(NC(=O)C2c3ccccc3C(=O)N2CCCN2CCOCC2)CC1 (centres undefined) | 640 s
O=C(CN1CCN(c2ccc(F)c(F)c2)C1=O)NC1CCSC1=O (centres undefined) | 678 s
CCOC(=O)c1noc2ncnc(NCCN(CC)c3cccc(C)c3)c12 | 946 s
O=C(CCn1cnc2cc(-c3noc(-c4ccc(F)cc4)n3)ccc21)N1CCOCC1 | 706 s
CNC(=O)C1CCCN(c2nc3ncn(CC(=O)Nc4ccc(F)c(Cl)c4)c(=O)c3s2)C1 (centres undefined) | 693 s
CNC(=O)c1noc([C@@H]2CC(F)(F)CN2C(=O)CCC2CCCC2)n1 | 848 s
O=C(NCCC1CCN(C(=O)Nc2ccccc2)CC1)c1ccsc1 | 749 s
CC1CCN(c2ccc(-c3noc(CN4CCN(c5ccccc5F)CC4)n3)cn2)CC1 | 1090 s
Cc1ccccc1Oc1nccnc1N1CCC(C(=O)NC2CCCCCC2)CC1 | 1090 s
CCCN1CCN(c2ncc(C(=O)Nc3ccc(OCC)cc3)c(N)n2)CC1 | 617 s
O=C(NCCN1CCOCC1)c1nc(-c2ccnc(N3CCCCCC3)c2)no1 | 564 s
CSC(=O)NC(=O)NC(=O)c1ccc([N+](=O)[O-])cc1 | 849 s
O=C(COc1ncccn1)NC1CCCCC1 | 624 s
Cc1cccc(-c2nnc(C)c(N3CCOCC3)n2)c1 | 645 s

Compound | RP-LC retention time
CC1Oc2ccc(-c3csc(NC(=O)c4cccs4)n3)cc2NC1=O (centres undefined) | 839 s
O=C(NCc1ccc(F)cc1Cl)c1csc(C(=O)N2CCCC2)n1 | 864 s
O=C(O)c1cc(-c2ccccn2)nc2ccc(Br)cc12 | 889 s
CCOC(=O)c1c(C)[nH]c(C)c1S(=O)(=O)N1CCC(C(=O)NC2CCCC2)CC1 | 735 s
COCc1cc(=O)n2c(n1)N(Cc1c(C)noc1C)CC2 | 626 s
CNC(=O)[C@@H]1CN(C(=O)c2cncc(Br)c2)C[C@H]1COC | 576 s
O=C(c1c[nH]c2ncccc12)N1CCCCCC1 | 646 s
CC1CCN(C(=O)c2ccc(OCC3CCCN(C(=O)c4ccc(C#N)cc4)C3)cc2)CC1 (centres undefined) | 956 s
CCOc1ccc(-c2ccc(=O)n(CCc3nc(-c4ccccc4)no3)n2)cc1 | 1000 s
COc1ccc(C2(C(=O)N3CCC(OCCOc4ccc(F)cc4)CC3)CC2)cc1 | 997 s
Cc1sc(-c2noc(C3CC3)n2)cc1S(=O)(=O)N1CCC(C(=O)NC2CCCCCC2)CC1 | 1080 s
CCNc1cc(N2CCCC(CCC(=O)N3CCC(C(=O)OCC)CC3)C2)ncn1 (centres undefined) | 646 s
CCCCOC(=O)c1ccc(NC(=O)c2cccn(Cc3cccc([N+](=O)[O-])c3)c2=O)cc1 | 1140 s
O=C(c1cc(C2CC2)[nH]n1)N1CC(n2cc(COCc3ccccc3)nn2)C1 | 730 s
Cc1cc(C)n(-c2nc(C)c(C(=O)Nc3ccc(N(C)C)cc3)s2)n1 | 737 s
Nc1ccc2c(c1)N=[N+]([O-])c1cc(N)ccc1C2 | 628 s
CC(C)n1c(=O)oc2cc(-c3noc(-c4cccc(F)c4)n3)ccc21 | 1200 s
Cc1nc(-c2cnccn2)nc2c1CCC(=O)N2Cc1ccncc1 | 510 s

Second part, the compound after the results:

RP-LC retention time | Compound
827 s | CCCN1C(=O)CN(S(=O)(=O)c2ccccc2)CC1(C)C(=O)NCc1ccc(F)cc1 (centres undefined)
578 s | CS(=O)(=O)c1ccc(CC(=O)Nc2nnc(C3CCCO3)o2)cc1 (centres undefined)
620 s | Oc1ccc(C2NCCc3c2[nH]c2ccc(Cl)cc32)cc1O (centres undefined)
959 s | CCN(CC)S(=O)(=O)c1ccc2c(c1)N(CC(=O)N(C)Cc1ccco1)C(=O)C1CCCCN21 (centres undefined)
1000 s | Cc1ccc(N2CC(c3noc(-c4cc(F)ccc4F)n3)CC2=O)cc1 (centres undefined)
806 s | Cc1ccc(NS(=O)(=O)c2cc(-c3[nH]ncc3C(=O)N3CCCCC3)oc2C)cc1F
649 s | Cc1ccc(N2N=C(C(=O)N3CCN(C(C)C)CC3)S(=O)(=O)c3cccnc32)cc1
834 s | COCCN1C(=O)c2cc(-c3ccc(OC)cc3)nn2CC1(C)C(=O)NCc1ccccc1 (centres undefined)
836 s | CCn1c(=O)n(CC)c2cc(S(=O)(=O)c3ccc(OC)cc3)c(NC(=O)C(C)C)cc21
1160 s | O=S(=O)(NCc1ccc(F)cc1)c1ccccc1-c1nc(-c2ccccc2)no1
696 s | COc1ccc(-c2cc(NS(C)(=O)=O)n(C3CCS(=O)(=O)C3)n2)cc1 (centres undefined)
1130 s | CCOc1ccc(NC(=O)c2cc3ccccc3cc2O)cc1
1010 s | COc1ccc(Cl)cc1NC(=O)NCCC1CCN(S(=O)(=O)c2ccccc2)CC1
786 s | CCN1c2ccc(F)cc2C(=O)NC12CCN(C(=O)c1cccc(OC)c1)CC2
717 s | CCc1ccc(C(=O)NCCc2nc3cccnc3n2C(C)C)cc1
788 s | CSc1ccc(-c2nc3cccc(C)n3c2Nc2ccc(Cl)cc2)cc1
831 s | O=C(Cn1cc(-c2nnco2)c2ccccc21)NCc1ccccc1Cl
900 s | CCCn1cc(CCNC(=O)Nc2cccc(Cl)c2F)c2cccnc21
723 s | COc1ccc(NC(=O)C2CCN(c3nnc4ccc(Cl)cn34)CC2)c(OC)c1
1090 s | Cc1ccc2c(c1)N(S(C)(=O)=O)CCC(C(=O)Nc1ccc(Br)c(C)c1)O2 (centres undefined)
1010 s | CC(C)Cc1cc(-c2nn3c(Cc4ccc(Cl)cc4)nnc3s2)n[nH]1
917 s | COc1ccc(CNC(=O)C2CCCN(S(=O)(=O)c3ccc(OC)c(Cl)c3)C2)cc1 (centres undefined)
616 s | CCn1cnc2c1CN(S(=O)(=O)c1ccc(C#N)cc1)CC2
679 s | Cc1ccccc1NS(=O)(=O)c1cc2[nH]c(=O)[nH]c2cc1C
820 s | O=c1n(CCOc2ccccc2)nc2c(S(=O)(=O)N3CCc4ccccc4C3)cccn12
817 s | CCc1noc(NC(C)=O)c1-c1ccc(OC)c(S(=O)(=O)N2CCCCCC2)c1

RP-LC retention time | Compound
1160 s | CCc1ccc(-n2ncc3c(=O)n(Cc4nc(-c5ccccc5)no4)cnc32)cc1
865 s | CN(C)c1ccc(C(=O)N2CCN(c3cc(-c4ccc(Cl)cc4)[nH]n3)CC2)cc1
954 s | Cc1cnn(Cc2nc(-c3ccc(NC(=O)Cc4ccccc4C)cc3)oc2C)c1
866 s | O=C1CCCCC(Cc2ccccc2)(C(=O)NCc2ccc(Cl)cc2)N1 (centres undefined)
1070 s | Cc1ccc(-c2csc(-c3cccn3CC(=O)N3CCCC3)n2)cc1
880 s | Cc1ccc(Cn2nc3c(S(=O)(=O)N4CCCC4)cccn3c2=O)cc1
662 s | CC1(C(=O)NCc2ccccc2)CN(S(C)(=O)=O)CC(=O)N1C1CC1 (centres undefined)
607 s | CCOC(=O)c1nc(NC2CCN(Cc3ccccc3)CC2)c2ccccc2n1
920 s | CCc1nc2c(NC(=O)c3ccc(C)cc3C)cccn2n1
984 s | CCCS(=O)(=O)c1nc2ccc(NS(=O)(=O)c3ccc(Cl)cc3)cc2s1
795 s | COc1ccc(-c2cc(C(=O)N3CCN(S(=O)(=O)c4ccc(OC)c(OC)c4)CC3)[nH]n2)cc1
1030 s | COc1ccccc1-c1nnc(C2CCN(S(=O)(=O)c3c(C)cc(C)cc3C)CC2)o1
623 s | COc1ccc(-n2nc(C(=O)N3CCN(c4ccccn4)CC3)c(=O)n(C)c2=O)cc1
1000 s | CCc1nc(-c2csc(S(=O)(=O)N3CCCC(C(=O)Nc4cccc(OC)c4)C3)c2)no1 (centres undefined)
649 s | Clc1cc(Cl)cc(-c2ccc(CNCc3ccncc3)o2)c1
731 s | Cc1noc(C)c1CCNC(=O)c1ccc2ccnc(N3CCN(c4ccc(F)cc4)CC3)c2c1
1290 s | Cc1ccccc1Oc1nccnc1N1CCCC(C(=O)NCc2cccc(Br)c2)C1 (centres undefined)
820 s | COC(=O)c1ncn2c1C(=O)N(CCCc1ccccc1)C(C)(C(=O)NC1CCCCC1)C2 (centres undefined)
875 s | CCOC(=O)c1c(S(=O)(=O)N2CCC(C(=O)Nc3cccc(C)c3)CC2)c(C)n(C)c1C
857 s | COc1ccc(CNC(=O)C2CCCN(c3nc4ccsc4c(=O)n3-c3ccc(F)cc3)C2)cc1 (centres undefined)
1000 s | O=c1ccc(-c2ccc(Cl)cc2)nn1CCc1nc(-c2cccs2)no1
903 s | Cc1cccc(N2C(=O)CN(S(C)(=O)=O)CC2(C)C(=O)NCc2ccc(Cl)cc2)c1C (centres undefined)
925 s | CCOC(=O)c1cn(Cc2cccc(C)c2)c2nc(C)ccc2c1=O
873 s | Cc1cc(C)cc(OCc2nc(CCN(C)C(=O)c3ccco3)no2)c1
595 s | O=C(Cn1c(=O)c2cccn2c2ccccc21)NCCCN1CCCCC1
846 s | CCn1cc(S(=O)(=O)Nc2cc(C)ccc2F)c2cccnc21

Reference: the METLIN SMRT retention time set (Domingo-Almenara et al. 2019)
